From US10751322B2, “Indole-3-aldehyde for treating dysreactive immune disorders” (Universita′ degli Studi di Perugia, priority 2013, dated 2020)

Assays:
[1] = tested on: genes Cyp1A1, Cyp1B1, IL-22, IL-10 and IDO1; type: cell-based, mice
Description: (§1) For these verifications, cultures were set up of mice stomachs and colons stimulated with 1 or 100 mM of IAld for 24 hours in vitro before determining the transcription of the above indicated genes by means of polymerase reaction. The histograms A-E show the activation (expressed in terms of the number of times the mRNA increases) of the genes Cyp1A1, Cyp1B1, IL-22, IL-10 and IDO1 respectively in the stomach (top diagram) and in the colon (bottom diagram) as a consequence of the stimulation. […] For comparison, also indicated are the values in the absence of stimulation with IAld. […] To assess the therapeutic effect in treating candidiasis, two experimental models were used of infection by C. albicans obtained by administration of the fungus intragastrically (by means of a tube) and intravaginally (by means of tip) respectively. To assess the therapeutic effect in treating colitis, the model used requires the administration of an irritant (dextran sodium sulphate, DDS), through the mouth. The assessment was made on mice C57BL/6 and on mice AhR^−/−, i.e., mice from which the AhR receptor had been artificially removed. The treatment with IAld lasted for 7 days.

Candida albicans [2] = experiment: Infection by C. albicans, fungus given intragastrically; type: in vivo, mice; conditions: 18 mg/kg intragastrically daily, 7 days
Description: as §1

colitis = experiment: Colitis model induced by dextran sodium sulphate through the mouth; type: in vivo, mice; conditions: 18 mg/kg intragastrically daily, 7 days
Description: as §1

Candida albicans [3] = experiment: Infection by C. albicans, fungus given intravaginally; type: in vivo, mice; conditions: 18 mg/kg intragastrically daily, 7 days
Description: as §1

AhR = biological target: T1, AhR (Mus musculus, UniProt P30561); experiment: AhR-responsive luciferase reporter test of agonist activity; type: cell-based; conditions: cell line H1L1.1c2, FIG. 1
T1 construct: endogenous in cells; host or cells: H1L1.1c2
T1 sequence (P30561 10-805 limits assumed): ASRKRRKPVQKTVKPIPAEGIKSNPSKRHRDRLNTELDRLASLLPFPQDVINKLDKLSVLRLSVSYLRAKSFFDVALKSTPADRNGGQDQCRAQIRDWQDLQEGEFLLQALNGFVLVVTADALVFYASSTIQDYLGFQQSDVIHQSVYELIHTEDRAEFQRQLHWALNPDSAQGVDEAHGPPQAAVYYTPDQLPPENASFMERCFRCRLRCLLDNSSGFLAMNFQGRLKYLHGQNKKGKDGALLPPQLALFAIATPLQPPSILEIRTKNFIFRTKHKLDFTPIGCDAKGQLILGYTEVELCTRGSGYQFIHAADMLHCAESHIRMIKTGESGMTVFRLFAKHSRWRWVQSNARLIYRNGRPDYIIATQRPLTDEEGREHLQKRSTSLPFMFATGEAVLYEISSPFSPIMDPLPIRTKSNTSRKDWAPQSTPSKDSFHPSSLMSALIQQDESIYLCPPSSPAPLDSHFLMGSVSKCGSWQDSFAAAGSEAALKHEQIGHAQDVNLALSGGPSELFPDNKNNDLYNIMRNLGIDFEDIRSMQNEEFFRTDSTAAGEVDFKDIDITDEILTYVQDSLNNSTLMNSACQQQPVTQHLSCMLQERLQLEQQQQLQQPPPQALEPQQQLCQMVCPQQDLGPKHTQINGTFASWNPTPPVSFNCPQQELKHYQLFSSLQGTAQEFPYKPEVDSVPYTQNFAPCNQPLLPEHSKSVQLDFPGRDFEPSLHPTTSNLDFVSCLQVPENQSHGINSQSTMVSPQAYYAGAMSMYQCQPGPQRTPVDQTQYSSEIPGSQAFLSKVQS
T1 sequence (P11499 whole entry partner): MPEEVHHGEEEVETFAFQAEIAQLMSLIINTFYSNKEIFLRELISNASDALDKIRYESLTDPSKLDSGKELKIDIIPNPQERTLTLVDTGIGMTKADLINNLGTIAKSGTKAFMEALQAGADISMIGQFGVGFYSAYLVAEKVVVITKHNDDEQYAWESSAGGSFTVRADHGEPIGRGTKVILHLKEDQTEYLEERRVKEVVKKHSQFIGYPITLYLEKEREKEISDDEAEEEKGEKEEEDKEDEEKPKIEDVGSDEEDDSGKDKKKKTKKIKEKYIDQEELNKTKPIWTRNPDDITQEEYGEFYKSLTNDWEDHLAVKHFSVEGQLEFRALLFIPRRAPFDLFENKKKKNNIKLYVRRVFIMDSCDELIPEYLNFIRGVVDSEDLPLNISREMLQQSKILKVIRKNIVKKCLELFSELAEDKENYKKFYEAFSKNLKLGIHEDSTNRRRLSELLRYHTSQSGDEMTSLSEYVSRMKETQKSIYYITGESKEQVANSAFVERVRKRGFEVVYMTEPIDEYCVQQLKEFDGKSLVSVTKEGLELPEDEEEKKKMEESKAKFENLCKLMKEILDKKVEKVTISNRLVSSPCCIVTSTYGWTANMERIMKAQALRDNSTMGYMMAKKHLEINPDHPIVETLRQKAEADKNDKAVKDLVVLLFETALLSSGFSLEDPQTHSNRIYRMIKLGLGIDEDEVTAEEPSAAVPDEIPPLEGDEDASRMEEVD
T1 sequence (O08915 whole entry partner): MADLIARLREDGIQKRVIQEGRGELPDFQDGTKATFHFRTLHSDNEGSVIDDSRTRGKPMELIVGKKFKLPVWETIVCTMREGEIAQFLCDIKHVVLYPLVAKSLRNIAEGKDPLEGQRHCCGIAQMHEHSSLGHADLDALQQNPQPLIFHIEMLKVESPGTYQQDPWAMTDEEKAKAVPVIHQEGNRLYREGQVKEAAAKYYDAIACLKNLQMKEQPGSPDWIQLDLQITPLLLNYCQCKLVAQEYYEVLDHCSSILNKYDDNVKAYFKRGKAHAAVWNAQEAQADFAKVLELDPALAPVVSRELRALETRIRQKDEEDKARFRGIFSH
Description: For this test, an AhR-responsive cell line was stimulated (cell line H1L1.1c2 containing a luciferase of firefly sensitive to stably transfected AhR) with IAld, indole-3-acetaldehyde (IAAld), indole-3-acetic acid (IAA) and indole-3-lactic acid (ILA). In a way well known to the technician in the field, the agonist activity was determined by means of luciferase test, and in FIG. 1 the luciferase activity of the different ligands, representative of such agonist activity, has been indicated, on the ordinate, as a percentage of the response induced by 50 nM of formylindolo[3,2-b]carbazole (FICZ) according to the ligand dose, expressed in logarithmic scale on the abscissa.

O=Cc1c[nH]c2ccccc12 [IAld, IH-indole-3-carbaldehyde]
dose dependence of gene activation [1]: strongly dependent on the dose | therapeutic effect in mice AhR−/− versus C57BL/6 (Candida albicans [2]; gastric candidiasis, mice AhR−/−): only to be found in mice C57BL/6 and not in mice AhR^−/− | growth of Candida albicans (CFU) at stomach level (Candida albicans [2]; mice C57BL/6, FIG. 3 diagram A): significant reduction in growth | activation of IL-22 and IL-10 in the stomach (Candida albicans [2]; mice C57BL/6, FIG. 3 histogram B): contemporaneous activation of IL-22 and IL-10 | therapeutic effect in mice AhR−/− versus C57BL/6 (colitis; colitis, mice AhR−/−): only to be found in mice C57BL/6 and not in mice AhR^−/− | percentage variation in body weight (colitis; mice C57BL/6 with colitis, FIG. 3 graph E): prevention of the reduction in body weight | degree of tissue inflammation (colon histopathology) (colitis; mice C57BL/6 with colitis, FIG. 3 photographs F): improvement in the degree of tissue inflammation | cells producing IL-22 (immunofluorescence) (colitis; mice C57BL/6 with colitis, FIG. 3 photographs G): expansion of cells producing IL-22 | growth of Candida albicans (CFU) at vagina level (Candida albicans [3]; mice C57BL/6, FIG. 3 diagram C): significant reduction in growth | activation of IL-22 and IL-10 in the vagina (Candida albicans [3]; mice C57BL/6, FIG. 3 histogram B (so in the source)): contemporaneous activation of IL-22 and IL-10 | therapeutic effect in mice AhR−/− versus C57BL/6 (Candida albicans [3]; vaginal candidiasis, mice AhR−/−): only to be found in mice C57BL/6 and not in mice AhR^−/− | dose dependence of AhR-agonist activity (AhR): closely dependent on the dose | AhR-agonist activity (luciferase activity as a percentage of the response induced by 50 nM FICZ) (AhR; compared with IAAld, ILA and IAA): substantially comparable to that of IAAld and is superior to that of ILA and IAA
